Assay results taken from PubChem BioAssay AID1963830 (Molecular Pharmacology Branch, DTP, NCI, 2024).

Test system: 922993-354-T-J3-PDC complex spheroid viability
Experiment: Anticancer human tumor 922993-354-T-J3-PDC patient-derived endometrial carcinoma cell line growth inhibition [POLQ]
Settings: for IC50: curve of first compound; for viability, T/C: stronger effect = lower value
Outline: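 Complex spheroid viability model combining PDC tumour cells with endothelial (HUVEC) and MSC stromal cells. Novobiocin, ART-558 or RP6685 were tested singly and in combination with standard and investigational anticancer drugs. Each was titrated in half-log steps from near clinical Cmax, or from 10 microM where Cmax was unknown.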

[1] = second compound 0.0316 µM, first compound 0.0316 µM
[2] = second compound 0.0316 µM, first compound 0.1 µM
[3] = second compound 0.0316 µM, first compound 0.316 µM
[4] = second compound 0.0316 µM, first compound 1 µM
[5] = second compound 0.0316 µM, first compound 3.16 µM
[6] = second compound 0.0316 µM, first compound 10 µM
[7] = second compound 0.1 µM, first compound 0.0316 µM
[8] = second compound 0.1 µM, first compound 0.1 µM
[9] = second compound 0.1 µM, first compound 0.316 µM
[10] = second compound 0.1 µM, first compound 1 µM
[11] = second compound 0.1 µM, first compound 3.16 µM
[12] = second compound 0.1 µM, first compound 10 µM
[13] = second compound 0.316 µM, first compound 0.0316 µM
[14] = second compound 0.316 µM, first compound 0.1 µM
[15] = second compound 0.316 µM, first compound 0.316 µM
[16] = second compound 0.316 µM, first compound 1 µM
[17] = second compound 0.316 µM, first compound 3.16 µM
[18] = second compound 0.316 µM, first compound 10 µM
[19] = second compound 1 µM, first compound 0.0316 µM
[20] = second compound 1 µM, first compound 0.1 µM
[21] = second compound 1 µM, first compound 0.316 µM
[22] = second compound 1 µM, first compound 1 µM
[23] = second compound 1 µM, first compound 3.16 µM
[24] = second compound 1 µM, first compound 10 µM
[25] = second compound 3.16 µM, first compound 0.0316 µM
[26] = second compound 3.16 µM, first compound 0.1 µM
[27] = second compound 3.16 µM, first compound 0.316 µM
[28] = second compound 3.16 µM, first compound 1 µM
[29] = second compound 3.16 µM, first compound 3.16 µM
[30] = second compound 3.16 µM, first compound 10 µM
[31] = second compound 10 µM, first compound 0.0316 µM
[32] = second compound 10 µM, first compound 0.1 µM
[33] = second compound 10 µM, first compound 0.316 µM
[34] = second compound 10 µM, first compound 1 µM
[35] = second compound 10 µM, first compound 3.16 µM
[36] = second compound 10 µM, first compound 10 µM
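Further: spheroids exposed to the agents for one week.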
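Wherever viability, T/C is given: 100% = DMSO vehicle control wells.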

COc1cc2cc(C(=O)CCC(=O)O)sc2cc1OC + COC1C(OC(N)=O)C(O)C(Oc2ccc3c(O)c(NC(=O)c4ccc(O)c(CC=C(C)C)c4)c(=O)oc3c2C)OC1(C)C
IC50 (second compound 0.0316 µM): > 10 µM
IC50 (second compound 0.1 µM): > 10 µM
IC50 (second compound 0.316 µM): > 10 µM
IC50 (second compound 1 µM): > 10 µM
IC50 (second compound 3.16 µM): > 10 µM
IC50 (second compound 10 µM): > 10 µM
viability, T/C [1]: 105%
viability, T/C [2]: 94.7%
viability, T/C [3]: 108%
viability, T/C [4]: 106%
viability, T/C [5]: 103%
viability, T/C [6]: 60.1%
viability, T/C [7]: 103%
viability, T/C [8]: 110%
viability, T/C [9]: 104%
viability, T/C [10]: 105%
viability, T/C [11]: 107%
viability, T/C [12]: 73.1%
viability, T/C [13]: 111%
viability, T/C [14]: 101%
viability, T/C [15]: 104%
viability, T/C [16]: 106%
viability, T/C [17]: 101%
viability, T/C [18]: 74.2%
viability, T/C [19]: 104%
viability, T/C [20]: 92.3%
viability, T/C [21]: 97.2%
viability, T/C [22]: 102%
viability, T/C [23]: 105%
viability, T/C [24]: 65.1%
viability, T/C [25]: 97.4%
viability, T/C [26]: 87.6%
viability, T/C [27]: 100%
viability, T/C [28]: 96.1%
viability, T/C [29]: 113%
viability, T/C [30]: 61.8%
viability, T/C [31]: 86.3%
viability, T/C [32]: 75.2%
viability, T/C [33]: 101%
viability, T/C [34]: 91.4%
viability, T/C [35]: 91.4%
viability, T/C [36]: 62%

C#Cc1c(F)ccc2cc(O)cc(-c3ncc4c(N5CC6CCC(C5)N6)nc(OCC56CCCN5CC(F)C6)nc4c3F)c12 (stereo not drawn) + Nc1ccc(C#CCN(C(=O)Cc2ncc(C(F)(F)F)cc2C(F)(F)F)c2ccc(F)cc2)nn1
IC50 (second compound 0.0316 µM): > 10 µM
IC50 (second compound 0.1 µM): > 10 µM
IC50 (second compound 0.316 µM): > 10 µM
IC50 (second compound 1 µM): > 10 µM
IC50 (second compound 3.16 µM): > 10 µM
IC50 (second compound 10 µM): > 10 µM
viability, T/C [1]: 109%
viability, T/C [2]: 106%
viability, T/C [3]: 104%
viability, T/C [4]: 102%
viability, T/C [5]: 104%
viability, T/C [6]: 102%
viability, T/C [7]: 105%
viability, T/C [8]: 101%
viability, T/C [9]: 104%
viability, T/C [10]: 101%
viability, T/C [11]: 101%
viability, T/C [12]: 102%
viability, T/C [13]: 109%
viability, T/C [14]: 108%
viability, T/C [15]: 106%
viability, T/C [16]: 103%
viability, T/C [17]: 104%
viability, T/C [18]: 102%
viability, T/C [19]: 105%
viability, T/C [20]: 107%
viability, T/C [21]: 105%
viability, T/C [22]: 106%
viability, T/C [23]: 107%
viability, T/C [24]: 98.2%
viability, T/C [25]: 103%
viability, T/C [26]: 106%
viability, T/C [27]: 104%
viability, T/C [28]: 104%
viability, T/C [29]: 102%
viability, T/C [30]: 100%
viability, T/C [31]: 94.3%
viability, T/C [32]: 99.9%
viability, T/C [33]: 100%
viability, T/C [34]: 99.1%
viability, T/C [35]: 96.9%
viability, T/C [36]: 92.5%

O=c1[nH]cc(F)c(=O)[nH]1 + COC1C(OC(N)=O)C(O)C(Oc2ccc3c(O)c(NC(=O)c4ccc(O)c(CC=C(C)C)c4)c(=O)oc3c2C)OC1(C)C
IC50 (second compound 0.0316 µM): 2.52 µM
IC50 (second compound 0.1 µM): 2.29 µM
IC50 (second compound 0.316 µM): 2.15 µM
IC50 (second compound 1 µM): 2.25 µM
IC50 (second compound 3.16 µM): 2.09 µM
IC50 (second compound 10 µM): 2.1 µM
viability, T/C [1]: 109%
viability, T/C [2]: 100%
viability, T/C [3]: 108%
viability, T/C [4]: 108%
viability, T/C [5]: 36.1%
viability, T/C [6]: 16%
viability, T/C [7]: 105%
viability, T/C [8]: 107%
viability, T/C [9]: 95.2%
viability, T/C [10]: 99.6%
viability, T/C [11]: 30.7%
viability, T/C [12]: 14.9%
viability, T/C [13]: 105%
viability, T/C [14]: 94.9%
viability, T/C [15]: 105%
viability, T/C [16]: 87.9%
viability, T/C [17]: 30.8%
viability, T/C [18]: 13.1%
viability, T/C [19]: 108%
viability, T/C [20]: 98.9%
viability, T/C [21]: 106%
viability, T/C [22]: 107%
viability, T/C [23]: 26.9%
viability, T/C [24]: 13.1%
viability, T/C [25]: 91.3%
viability, T/C [26]: 96.7%
viability, T/C [27]: 108%
viability, T/C [28]: 88.2%
viability, T/C [29]: 28.2%
viability, T/C [30]: 13.8%
viability, T/C [31]: 94.5%
viability, T/C [32]: 91.9%
viability, T/C [33]: 86%
viability, T/C [34]: 83.7%
viability, T/C [35]: 31.6%
viability, T/C [36]: 18.1%

C=CC(=O)N1CCN(c2nc(=O)n(-c3c(C)ccnc3C(C)C)c3nc(-c4c(O)cccc4F)c(F)cc23)C(C)C1 (stereo not drawn) + Cc1cccc(N(C)C(=O)C2C(O)CCN2c2nc(C)cc(C(F)(F)F)c2C#N)c1
IC50 (second compound 0.0316 µM): > 10 µM
IC50 (second compound 0.1 µM): > 10 µM
IC50 (second compound 0.316 µM): > 10 µM
IC50 (second compound 1 µM): > 10 µM
IC50 (second compound 3.16 µM): > 10 µM
IC50 (second compound 10 µM): > 10 µM
viability, T/C [1]: 100%
viability, T/C [2]: 105%
viability, T/C [3]: 106%
viability, T/C [4]: 113%
viability, T/C [5]: 102%
viability, T/C [6]: 93.2%
viability, T/C [7]: 104%
viability, T/C [8]: 103%
viability, T/C [9]: 103%
viability, T/C [10]: 108%
viability, T/C [11]: 97.8%
viability, T/C [12]: 102%
viability, T/C [13]: 105%
viability, T/C [14]: 99.2%
viability, T/C [15]: 103%
viability, T/C [16]: 104%
viability, T/C [17]: 92.2%
viability, T/C [18]: 96.8%
viability, T/C [19]: 103%
viability, T/C [20]: 95.2%
viability, T/C [21]: 100%
viability, T/C [22]: 102%
viability, T/C [23]: 101%
viability, T/C [24]: 105%
viability, T/C [25]: 108%
viability, T/C [26]: 103%
viability, T/C [27]: 102%
viability, T/C [28]: 98.9%
viability, T/C [29]: 102%
viability, T/C [30]: 106%
viability, T/C [31]: 93.7%
viability, T/C [32]: 101%
viability, T/C [33]: 97.9%
viability, T/C [34]: 99.8%
viability, T/C [35]: 111%
viability, T/C [36]: 112%
